Results reported in patent US20260345619A1 (Principia Biopharma Inc., priority 2023, published 2026).

Experiment: Asthma Quality of Life Questionnaire with Standardized Activities (AQLQ(S))
Assay type: in vivo, human
Settings: mITT
Text: The AQLQ(S) is a self-administered patient reported outcome to measure the functional impairments that are most troublesome to adolescents and adults ≥12 years of age as a result of their asthma.
Asthma Quality of Life Questionnaire with Standardized Activities (AQLQ(S)) self-administered (≥12 years)
The AQLQ(S) was designed as a self-administered patient reported outcome to measure the functional impairments that are most troublesome to adolescents and adults ≥12 years of age as a result of their asthma. The instrument is comprised of 32 items, each rated on a 7-point Likert scales from 1 to 7. The AQLQ(S) has 4 domains. The domains and the number of items in each domain are as follows: • Symptoms (12 items) • Activity limitation (11 items) • Emotional function (5 items) • Environmental stimuli (4 items)
A global score is calculated ranging from 1 to 7 and a score by domain. Higher scores indicate better quality of life. […] Patients were to complete the questionnaire in an electronic diary during on-site visits.
Secondary endpoints included pre-bronchodilator FEV1 change from baseline at EOT, ACQ-5 score change from baseline, and AQLQ score change from baseline. Other secondary and exploratory endpoints are described in Table 2.

## CC(C)(C=C(C#N)C(=O)N1CCC[C@@H](n2nc(-c3ccc(Oc4ccccc4)cc3F)c3c(N)ncnc32)C1)N1CCN(C2COC2)CC1 (mixture of isomers) [rilzabrutinib, (R)-2-[3-[4-amino-3-(2-fluoro-4-phenoxy-phenyl)pyrazolo[3,4-d]pyrimidin-1-yl]piperidine-1-carbonyl]-4-methyl-4-[4-(oxetan-3-yl)piperazin-1-yl]pent-2-enenitrile]
Week 8, 400 mg TID
  AQLQ(S) Global score, Mean: 5.27
  AQLQ(S) Global score, Median: 5.06
  AQLQ(S) Global score, change from baseline, LS Mean: 0.42
  AQLQ(S) Global score, change from baseline, Mean: 0.29
  AQLQ(S) Global score, change from baseline, Median: 0.34
  AQLQ(S) Symptoms score, Mean: 5.29
  AQLQ(S) Symptoms score, Median: 5.17
  AQLQ(S) Symptoms score, change from baseline, LS Mean: 0.44
  AQLQ(S) Symptoms score, change from baseline, Mean: 0.29
  AQLQ(S) Symptoms score, change from baseline, Median: 0.38
Week 8, 400 mg TID, 95% CI −0.16, 0.43
  AQLQ(S) Symptoms score, change from baseline, LS Mean Diff vs. placebo: 0.13
Week 8, 400 mg TID, 95% CI −0.18, 0.37
  AQLQ(S) Global score, change from baseline, LS Mean Diff vs. placebo: 0.10
Week 8, 400 mg TID, 95% CI −0.18, 0.38
  AQLQ(S) Activity limitation score, change from baseline, LS Mean Diff vs. placebo: 0.10
Week 8, 400 mg TID, 95% CI −0.20, 0.45
  AQLQ(S) Emotional function score, change from baseline, LS Mean Diff vs. placebo: 0.13
Week 8, 400 mg TID, 95% CI −0.34, 0.47
  AQLQ(S) Environmental stimuli score, change from baseline, LS Mean Diff vs. placebo: 0.06
Week 12, 400 mg BID
  AQLQ(S) Activity limitation score, Mean: 5.66
  AQLQ(S) Activity limitation score, Median: 5.82
  AQLQ(S) Activity limitation score, change from baseline, LS Mean: 0.77
  AQLQ(S) Activity limitation score, change from baseline, Mean: 0.85
  AQLQ(S) Activity limitation score, change from baseline, Median: 0.45
  AQLQ(S) Emotional function score, Mean: 5.96
  AQLQ(S) Emotional function score, Median: 6.20
  AQLQ(S) Emotional function score, change from baseline, LS Mean: 0.97
  AQLQ(S) Emotional function score, change from baseline, Mean: 0.72
  AQLQ(S) Emotional function score, change from baseline, Median: 0.40
  AQLQ(S) Environmental stimuli score, Mean: 5.34
  AQLQ(S) Environmental stimuli score, change from baseline, LS Mean: 0.70
  AQLQ(S) Environmental stimuli score, change from baseline, Mean: 0.87
  AQLQ(S) Environmental stimuli score, change from baseline, Median: 0.50
  AQLQ(S) Global score, Mean: 5.75
  AQLQ(S) Global score, Median: 5.72
  AQLQ(S) Global score, change from baseline, LS Mean: 0.82
  AQLQ(S) Global score, change from baseline, Mean: 0.84
  AQLQ(S) Global score, change from baseline, Median: 0.69
  AQLQ(S) Symptoms score, Mean: 5.87
  AQLQ(S) Symptoms score, Median: 5.92
  AQLQ(S) Symptoms score, change from baseline, LS Mean: 0.84
  AQLQ(S) Symptoms score, change from baseline, Mean: 0.87
  AQLQ(S) Symptoms score, change from baseline, Median: 0.83
Week 12, 400 mg BID, 95% CI 0.06, 1.49
  AQLQ(S) Environmental stimuli score, change from baseline, LS Mean Diff vs. placebo: 0.78
Week 12, 400 mg BID, 95% CI 0.12, 1.36
  AQLQ(S) Emotional function score, change from baseline, LS Mean Diff vs. placebo: 0.74
Week 12, 400 mg BID, 95% CI 0.22, 1.11
  AQLQ(S) Symptoms score, change from baseline, LS Mean Diff vs. placebo: 0.67
Week 12, 400 mg BID, 95% CI 0.25, 1.18
  AQLQ(S) Global score, change from baseline, LS Mean Diff vs. placebo: 0.72
Week 12, 400 mg BID, 95% CI 0.28, 1.28
  AQLQ(S) Activity limitation score, change from baseline, LS Mean Diff vs. placebo: 0.78
Week 12, 400 mg TID
  AQLQ(S) Activity limitation score, Mean: 5.45
  AQLQ(S) Activity limitation score, Median: 5.36
  AQLQ(S) Activity limitation score, change from baseline, LS Mean: 0.62
  AQLQ(S) Activity limitation score, change from baseline, Mean: 0.50
  AQLQ(S) Activity limitation score, change from baseline, Median: 0.55
  AQLQ(S) Emotional function score, Mean: 5.57
  AQLQ(S) Emotional function score, Median: 5.60
  AQLQ(S) Emotional function score, change from baseline, LS Mean: 0.53
  AQLQ(S) Emotional function score, change from baseline, Mean: 0.43
  AQLQ(S) Emotional function score, change from baseline, Median: 0.40
  AQLQ(S) Environmental stimuli score, Mean: 5.08
  AQLQ(S) Environmental stimuli score, change from baseline, LS Mean: 0.54
  AQLQ(S) Environmental stimuli score, change from baseline, Mean: 0.46
  AQLQ(S) Environmental stimuli score, change from baseline, Median: 0.50
  AQLQ(S) Global score, Mean: 5.41
  AQLQ(S) Global score, Median: 5.23
  AQLQ(S) Global score, change from baseline, LS Mean: 0.57
  AQLQ(S) Global score, change from baseline, Mean: 0.46
  AQLQ(S) Global score, change from baseline, Median: 0.53
  AQLQ(S) Symptoms score, Mean: 5.41
  AQLQ(S) Symptoms score, Median: 5.25
  AQLQ(S) Symptoms score, change from baseline, LS Mean: 0.59
  AQLQ(S) Symptoms score, change from baseline, Mean: 0.44
  AQLQ(S) Symptoms score, change from baseline, Median: 0.58
Week 12, 400 mg TID, 95% CI 0.02, 0.60
  AQLQ(S) Activity limitation score, change from baseline, LS Mean Diff vs. placebo: 0.31
Week 12, 400 mg TID, 95% CI −0.01, 0.60
  AQLQ(S) Global score, change from baseline, LS Mean Diff vs. placebo: 0.29
Week 12, 400 mg TID, 95% CI −0.01, 0.68
  AQLQ(S) Symptoms score, change from baseline, LS Mean Diff vs. placebo: 0.34
Week 12, 400 mg TID, 95% CI −0.08, 0.72
  AQLQ(S) Emotional function score, change from baseline, LS Mean Diff vs. placebo: 0.32
Week 12, 400 mg TID, 95% CI −0.23, 0.57
  AQLQ(S) Environmental stimuli score, change from baseline, LS Mean Diff vs. placebo: 0.17
